{
  "source": "patent US20140350092A1",
  "about": "“METHOD FOR […] VIRUS INFECTION” (Natura Corporation, priority 2003, published 2014)",
  "key": {"[1]": {"tested_on": "Japan cedar pollen", "assay": "Assay of pollen enclosure (pollen rouleaux formation / pollen aggregation)", "protocol": "In order to assay the actions of pectin and nucleic acid, contained in the contact preventive biological preparation of the present invention, on pollen, the following experiments were carried out. In the following experiments, by “pollen rouleaux formation” is meant a state in which a plurality of pollen particles continue linearly, and by “pollen aggregation” is meant a state in which a plurality of pollen particles constitute a bulk. Both “pollen rouleaux formation” and “pollen aggregation” denote a state in which pollen particles are captured by a medium and their free movement is inhibited, and as the degree thereof increases, the power of enclosing pollen increases.\nJapan cedar pollen was put in a first water solution containing pectin (#168-00555 by Wako Pure Chemical Industries, Ltd.), in a second water solution containing glycerin, in a third water solution containing pectin and glycerin, and in a fourth water solution containing DNA (DN-JA0904, DK-JB0218 by Daiwa Fine Chemical Co. Ltd.), RNA (R6625 by Sigma), amino acid, and glycerin, and these water solutions were subjected to incubation for ten minutes at room temperature to prepare pollen developed liquids.\nEach pollen developed liquid was instilled in the form of a drop onto a slide glass and was allowed to stand. After being dried, the test sample was stained by means of a ruthenium red solution and a gentian violet alcohol solution, and the assay of pollen rouleaux formation was examined microscopically.\nIn order to comparatively examine the actions of enclosing pollen by pectins, uronic acid-containing substances, and mucopolysaccharides according to the present invention, the following twelve kinds of samples were examined in the same way as the first exemplary embodiment. The twelve samples were: YM115-H; LM101-AS; Type DF; SLENDID type 100; SLENDID type 200; LM104AS-FS; LM-SCS; USP-H; USP-L; LH-105AS; AS Confectionary; and YM150-LJ by Genu."}, "[2]": {"tested_on": "neuraminidase of the type A influenza virus", "assay": "enzymatic activity of influenza-virus neuraminidase (synthetic coloring substrate)", "type": "biochemical", "protocol": "The activity of neuraminidase of the type A influenza virus was analyzed by an enzymic reaction with a synthetic coloring substrate (Gene Stat Flu Kit by Nichirei). This enzymic reaction is based on the power of neuraminidase to cut acetyl neuraminic, and darker solution's blue-coloring result indicates higher enzymatic activity.\nA virus test body, taken from the larynx of a type A influenza infected patient, was divided into two sample pieces, i.e., a control sample and a sample used for the evaluation of the anti-enzyme activity of pectins."}, "[3]": {"tested_on": "pollenosis sufferer's white blood cells", "assay": "in vitro cluster formation by pollenosis sufferer's white blood cells and pollen", "type": "cell-based, human", "settings": "pollen dispersed in 0.3% pectin water solution", "protocol": "White blood cells separated from the blood of a pollenosis sufferer was subjected to incubation on a slide glass with cedar pollen fixed thereonto."}, "[4]": {"tested_on": "basophiles in the blood of a pollenosis sufferer", "assay": "emission of histamine from basophiles in the blood of a pollenosis sufferer", "type": "cell-based, human", "protocol": "Blood sampling from a pollenosis sufferer was carried out, and basophiles recognized by a cell surface marker were separated by means of a magnet method. Then, the basophiles thus separated were exposed to a pollen extraction component fixed onto a micro plate, and emitted histamine was quantitatively measured by an absorbance method through a coloring reaction making use of antihistamic antibodies (HRT by Shionogi & Co., Ltd.).\nA control sample making use of only a buffering solution, a sample comprising a pectin-containing buffering solution, and a nucleic acid-containing sample were prepared, and the rate of liberation of histamine with respect to the increase of allergen was comparatively examined. In the experiment, a cedar pollen extraction antigen was used as an allergen."}, "[5]": {"assay": "Application testing of eyedrop and nosedrop biological preparations on pollenosis sufferer", "type": "in vivo, human", "protocol": "The contact preventive biological preparation according to the present invention was applied to eyedrop and nosedrop biological preparations and their application tests were carried out on test subjects. These eyedrop and nosedrop biological preparations according to the present exemplary embodiment contain therein pectin (type DF et cetera by Genu) and DNA (Daiwa Fine Chemical Co. Ltd.) at the following contents.\nThe content of pectin and the content of DNA are: pectin (0.03 to 1.0%); DNA (0.05 to 1.0%); 0.5% pectin+0.5% DNA; 0.8% pectin+0.2% DNA; and 0.2% pectin+0.8% DNA.\nPollenosis sufferers were test subjects, and the degree of improvement in itching symptom when each eyedrop biological preparation was administrated at the time of the development of an allergic reaction and its duration and application (use) feeling (the degree of uncomfortable feeling) were examined. The results thus obtained were evaluated according to the following evaluation standards."}, "[6]": {"assay": "Comparison in action with commercially available eyedrop and nosedrop biological preparations", "design": "species or system human", "settings": "in vivo", "excerpt": "Conventional, commercially available eyedrop and nosedrop biological preparations against pollenosis symptoms were compared with the biological preparations according to the present invention in the action with respect to the manifestation of pollenosis symptoms.\nThe commercially available nosedrop biological preparations contain a vasopressor agent, an antihistamic agent, a bactericidal substance, a fragrant material et cetera."}, "[7]": {"tested_on": "Japan cedar pollen", "assay": "Assay of pollen enclosure (pollen rouleaux formation / pollen aggregation)", "settings": "in biological preparations (artificial tears, nose spray, mouth washer) and drug solutions"}, "[8]": {"settings": "after ingestion versus before ingestion; cited from earlier work"}},
  "data": [
    {"compound": "carboxymethyl cellulose", "values": [
      {"measurement": "effect of additive on the pollen enclosing action of pectin", "setting": "[1]", "value": "reinforced"}
    ]},
    {"compound": "methyl cellulose", "values": [
      {"measurement": "effect of additive on the pollen enclosing action of pectin", "setting": "[1]", "value": "reinforced"}
    ]},
    {"compound": "carrageenan [carrageenan (K-100J), reference compound]", "values": [
      {"measurement": "pollen enclosing power", "setting": "[1]; comparison of samples, same way as first exemplary embodiment", "value": "less significant in pollen enclosing power than the others"}
    ]},
    {"compound": "heparin [reference compound]", "values": [
      {"measurement": "neuraminidase enzymatic activity (blue color reaction)", "setting": "[2]; heparin 20 unit/ml", "value": "color exhibition of blue coloring became dull"}
    ]},
    {"compound": "cluster dextrin", "values": [
      {"measurement": "effect of additive on the pollen enclosing action of pectin", "setting": "[1]", "value": "reinforced"}
    ]},
    {"compound": "OC[C@H]1O[C@H](O[C@H]2O[C@H](CO)[C@@H](O)[C@H](O)[C@H]2O)[C@H](O)[C@@H](O)[C@@H]1O", "note": "[trehalose]", "values": [
      {"measurement": "effect of additive on the pollen enclosing action of pectin", "setting": "[1]", "value": "reinforced"}
    ]},
    {"compound": "OB(O)O", "note": "[boric acid]", "values": [
      {"measurement": "effect on pollen aggregation / dispersion", "setting": "[1]", "value": "promoted the aggregation of pollen"},
      {"measurement": "pollen burst", "setting": "[1]", "value": "causing pollen to burst"}
    ]},
    {"compound": "N[C@@H](CCC(=O)O)C(=O)O", "note": "[glutamic acid]", "values": [
      {"measurement": "effect of additive on the pollen enclosing action of pectin", "setting": "[1]", "value": "reinforce the action of enclosing pollen by pectin"}
    ]},
    {"compound": "pectin", "values": [
      {"measurement": "pollen rouleaux formation", "setting": "[1]; no pectin or pectin at a low concentration of less than 0.3%", "value": "no rouleaux capture of cedar pollen was detected"},
      {"measurement": "pollen rouleaux formation", "setting": "[1]; pectin from about 0.03 to about 3.0%", "value": "pollen rouleaux formation was promoted"},
      {"measurement": "accumulation of white blood cells on pollen", "setting": "[3]", "value": "no tendency to accumulate on pollen"},
      {"measurement": "effect of preventing the liberation of histamine", "setting": "[4]; 0.03% pectin alone, FIG. 2", "value": "impossible for a 0.03% pectin-containing sample alone to provide a satisfactory effect"},
      {"measurement": "liberation of histamine from basophiles", "setting": "[4]; 0.03% pectin, cedar pollen extraction antigen, FIG. 1", "value": "inhibited over a wide range"},
      {"measurement": "liberation of histamine from basophiles", "setting": "[4]; pectin about 0.1% to about 0.3%, high-concentration cedar pollen", "value": "inhibited"},
      {"measurement": "neuraminidase enzymatic activity (blue color reaction)", "setting": "[2]; 0.05% pectin (USD-H by Genu)", "value": "no color reaction was observed"},
      {"measurement": "curative properties against the symptoms", "setting": "[5]; eyedrop, FIG. 3, 0.5% pectin or 0.5% DNA", "value": "obvious curative properties against the symptoms"},
      {"measurement": "application feeling", "setting": "[5]; eyedrops of a pectin concentration of 0.5% or more", "value": "caused a sticky feeling"},
      {"measurement": "curative properties against pollenosis symptoms (itching and snuffles)", "setting": "[5]; pectin from 0.03 to 1%, used alone", "value": "curative properties against pollenosis symptoms"},
      {"measurement": "irritation / sensation on application", "setting": "[6]", "value": "felling of drying"},
      {"measurement": "pollen enclosing function of pectin in presence of other components", "setting": "[7]", "value": "exerted satisfactorily without any interference"}
    ]},
    {"compound": "apple pectin", "values": [
      {"measurement": "drop of concentration of histamine in the blood", "setting": "[8]", "value": 24, "unit": "%"}
    ]}
  ]
}
